Assay results as given in ChEMBL document CHEMBL1201862, “PubChem BioAssay data set” (2004).
The source made the active and inactive calls.

What was measured:
[1] = biological target: T1, Calpain-2 catalytic subunit (Sus scrofa, UniProt P43367); experiment: pig calpain II inhibitor potency, dose response, biochemical, fluorogenic peptide substrate (AID 1420); format: functional
T1 sequence (P43367 whole entry): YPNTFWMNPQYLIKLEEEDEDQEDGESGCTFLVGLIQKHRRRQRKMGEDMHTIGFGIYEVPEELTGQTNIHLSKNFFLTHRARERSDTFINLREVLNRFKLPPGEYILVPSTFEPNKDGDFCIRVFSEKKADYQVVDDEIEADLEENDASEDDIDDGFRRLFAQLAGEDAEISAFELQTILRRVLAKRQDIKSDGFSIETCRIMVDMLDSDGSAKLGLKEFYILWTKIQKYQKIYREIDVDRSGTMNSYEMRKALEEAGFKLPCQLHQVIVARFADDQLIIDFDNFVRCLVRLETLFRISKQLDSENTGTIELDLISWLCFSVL

Fatty acid synthase [2] = biological target: T2, Fatty acid synthase (Homo sapiens, UniProt P49327); experiment: FAS thioesterase domain inhibitors, dose response, biochemical, endpoint fluorescence intensity, uHTS hits (AID 624327); format: functional;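 further: fluorescence from hydrolysis of an O-methyl fluorescein acyl ester substrate by the enzyme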
T2 sequence (P49327 whole entry, the tested form may be a part): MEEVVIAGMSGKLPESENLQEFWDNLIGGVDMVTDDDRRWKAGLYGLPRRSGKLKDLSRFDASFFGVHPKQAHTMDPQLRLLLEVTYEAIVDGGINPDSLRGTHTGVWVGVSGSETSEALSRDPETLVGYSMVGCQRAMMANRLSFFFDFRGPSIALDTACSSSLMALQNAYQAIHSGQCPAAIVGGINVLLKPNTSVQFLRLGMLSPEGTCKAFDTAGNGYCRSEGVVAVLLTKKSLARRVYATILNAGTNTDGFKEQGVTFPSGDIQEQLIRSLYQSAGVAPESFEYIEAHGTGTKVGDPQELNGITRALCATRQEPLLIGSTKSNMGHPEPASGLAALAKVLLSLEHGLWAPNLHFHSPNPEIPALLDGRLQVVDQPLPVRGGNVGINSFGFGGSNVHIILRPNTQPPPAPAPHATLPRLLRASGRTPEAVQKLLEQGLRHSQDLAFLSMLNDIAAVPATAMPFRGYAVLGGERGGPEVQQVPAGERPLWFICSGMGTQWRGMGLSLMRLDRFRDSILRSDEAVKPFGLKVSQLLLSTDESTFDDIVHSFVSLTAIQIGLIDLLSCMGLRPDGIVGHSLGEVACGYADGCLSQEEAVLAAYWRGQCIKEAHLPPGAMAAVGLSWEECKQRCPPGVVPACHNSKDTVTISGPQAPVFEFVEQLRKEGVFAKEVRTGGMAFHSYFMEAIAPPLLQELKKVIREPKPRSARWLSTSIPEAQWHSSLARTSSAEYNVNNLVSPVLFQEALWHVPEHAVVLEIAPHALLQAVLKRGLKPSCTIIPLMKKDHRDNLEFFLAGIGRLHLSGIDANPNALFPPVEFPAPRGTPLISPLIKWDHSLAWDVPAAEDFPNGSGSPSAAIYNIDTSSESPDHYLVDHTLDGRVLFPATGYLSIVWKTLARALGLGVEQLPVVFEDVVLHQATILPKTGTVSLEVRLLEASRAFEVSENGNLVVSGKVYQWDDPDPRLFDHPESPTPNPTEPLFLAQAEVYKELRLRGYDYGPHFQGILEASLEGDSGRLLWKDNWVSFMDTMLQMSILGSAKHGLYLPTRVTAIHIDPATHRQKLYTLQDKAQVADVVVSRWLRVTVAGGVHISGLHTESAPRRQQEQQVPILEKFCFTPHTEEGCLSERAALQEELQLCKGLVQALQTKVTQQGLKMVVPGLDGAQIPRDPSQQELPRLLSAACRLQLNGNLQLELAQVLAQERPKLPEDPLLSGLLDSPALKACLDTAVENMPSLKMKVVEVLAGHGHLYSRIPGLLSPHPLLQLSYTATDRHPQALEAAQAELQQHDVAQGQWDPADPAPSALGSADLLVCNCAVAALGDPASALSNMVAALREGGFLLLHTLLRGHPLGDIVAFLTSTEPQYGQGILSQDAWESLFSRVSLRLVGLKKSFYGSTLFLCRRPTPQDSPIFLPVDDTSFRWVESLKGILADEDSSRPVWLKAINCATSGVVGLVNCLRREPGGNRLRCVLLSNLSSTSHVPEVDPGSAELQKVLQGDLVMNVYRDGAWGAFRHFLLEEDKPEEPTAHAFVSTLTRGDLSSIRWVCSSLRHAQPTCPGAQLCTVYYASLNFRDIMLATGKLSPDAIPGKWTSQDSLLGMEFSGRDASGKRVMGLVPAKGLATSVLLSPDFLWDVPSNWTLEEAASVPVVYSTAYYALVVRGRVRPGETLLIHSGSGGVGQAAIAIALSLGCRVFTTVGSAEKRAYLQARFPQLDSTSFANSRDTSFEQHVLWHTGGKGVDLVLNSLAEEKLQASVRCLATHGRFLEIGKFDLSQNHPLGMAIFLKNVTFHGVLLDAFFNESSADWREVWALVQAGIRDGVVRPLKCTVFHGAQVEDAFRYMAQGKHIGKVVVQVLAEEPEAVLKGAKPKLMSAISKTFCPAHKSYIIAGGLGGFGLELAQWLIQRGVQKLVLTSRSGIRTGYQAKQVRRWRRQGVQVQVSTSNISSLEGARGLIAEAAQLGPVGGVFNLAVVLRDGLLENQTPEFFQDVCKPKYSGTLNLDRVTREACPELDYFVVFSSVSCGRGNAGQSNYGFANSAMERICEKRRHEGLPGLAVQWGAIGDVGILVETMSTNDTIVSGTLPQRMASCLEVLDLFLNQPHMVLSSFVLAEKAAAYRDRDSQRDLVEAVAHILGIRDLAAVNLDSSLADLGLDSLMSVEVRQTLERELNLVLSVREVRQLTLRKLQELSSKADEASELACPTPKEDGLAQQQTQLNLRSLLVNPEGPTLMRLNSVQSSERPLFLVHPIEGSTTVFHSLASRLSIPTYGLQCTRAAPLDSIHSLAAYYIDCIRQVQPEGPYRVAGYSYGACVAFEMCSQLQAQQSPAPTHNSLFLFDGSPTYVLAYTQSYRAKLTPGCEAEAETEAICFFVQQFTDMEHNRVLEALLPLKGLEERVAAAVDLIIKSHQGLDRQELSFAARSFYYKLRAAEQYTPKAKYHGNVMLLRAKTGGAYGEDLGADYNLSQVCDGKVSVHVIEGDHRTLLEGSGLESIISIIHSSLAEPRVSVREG

Fatty acid synthase [3] = biological target: T2, Fatty acid synthase; experiment: FAS thioesterase domain inhibitors, dose response, biochemical, kinetic fluorescence intensity (AID 624326); format: functional;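 further: rate of fluorescence rise from hydrolysis of a fluorogenic O-methyl fluorescein ester substrate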
[4] = biological target: Luciferin 4-monooxygenase (Photinus pyralis, UniProt P08659); experiment: firefly luciferase enzyme inhibitors, dose response, biochemical, luminescence (AID 1891)
Sequence of Luciferin 4-monooxygenase (P08659 whole entry): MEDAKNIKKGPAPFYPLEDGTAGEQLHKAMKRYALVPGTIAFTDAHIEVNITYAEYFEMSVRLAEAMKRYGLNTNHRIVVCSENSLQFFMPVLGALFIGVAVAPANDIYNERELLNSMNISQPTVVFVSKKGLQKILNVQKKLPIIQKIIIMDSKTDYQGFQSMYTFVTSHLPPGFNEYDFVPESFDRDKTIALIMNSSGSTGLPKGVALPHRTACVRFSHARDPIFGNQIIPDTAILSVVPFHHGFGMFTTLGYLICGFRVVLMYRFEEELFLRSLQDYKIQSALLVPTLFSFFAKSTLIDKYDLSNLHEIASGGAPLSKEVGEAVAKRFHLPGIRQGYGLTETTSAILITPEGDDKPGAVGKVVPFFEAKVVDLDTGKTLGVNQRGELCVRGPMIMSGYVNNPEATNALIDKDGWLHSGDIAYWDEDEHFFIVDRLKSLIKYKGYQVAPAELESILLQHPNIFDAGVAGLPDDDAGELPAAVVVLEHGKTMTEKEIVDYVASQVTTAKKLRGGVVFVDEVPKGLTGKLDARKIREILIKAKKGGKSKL

[5] = Luminescence Cell-Based Dose Confirmation HTS to Identify Inhibitors of Platelet Dense Granule Release. [Related pubchem assays: 1663 (Primary HTS), 1678 (Summary of Project)]; format: functional
Cytochrome P450 2C19 = Cytochrome P450 2C19 (Homo sapiens, UniProt P33261); experiment: Cytochrome panel assay with activity outcomes. Panel member name: p450-cyp2c19 Compounds with AC50 equal or less than 10 uM are considered active; format: functional; settings: read-out: AC50
Sequence of Cytochrome P450 2C19 (P33261 whole entry): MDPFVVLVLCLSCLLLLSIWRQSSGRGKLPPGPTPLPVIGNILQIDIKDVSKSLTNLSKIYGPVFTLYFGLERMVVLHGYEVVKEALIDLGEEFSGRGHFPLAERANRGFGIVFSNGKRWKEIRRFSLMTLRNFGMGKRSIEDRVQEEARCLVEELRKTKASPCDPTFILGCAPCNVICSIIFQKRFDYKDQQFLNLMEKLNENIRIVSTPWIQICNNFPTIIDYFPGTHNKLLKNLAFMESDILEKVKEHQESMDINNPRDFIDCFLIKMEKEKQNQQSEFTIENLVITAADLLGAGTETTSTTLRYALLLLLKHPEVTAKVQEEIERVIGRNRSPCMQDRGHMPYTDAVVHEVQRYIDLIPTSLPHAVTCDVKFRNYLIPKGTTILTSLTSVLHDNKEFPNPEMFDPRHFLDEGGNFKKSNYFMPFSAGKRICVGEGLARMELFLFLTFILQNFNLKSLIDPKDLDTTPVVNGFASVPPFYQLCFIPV

Cytochrome P450 1A2 = biological target: T3, Cytochrome P450 1A2 (Homo sapiens, UniProt P05177);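 further: PubChem cytochrome P450 panel assay, CYP1A2 panel member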
T3 sequence (P05177 whole entry): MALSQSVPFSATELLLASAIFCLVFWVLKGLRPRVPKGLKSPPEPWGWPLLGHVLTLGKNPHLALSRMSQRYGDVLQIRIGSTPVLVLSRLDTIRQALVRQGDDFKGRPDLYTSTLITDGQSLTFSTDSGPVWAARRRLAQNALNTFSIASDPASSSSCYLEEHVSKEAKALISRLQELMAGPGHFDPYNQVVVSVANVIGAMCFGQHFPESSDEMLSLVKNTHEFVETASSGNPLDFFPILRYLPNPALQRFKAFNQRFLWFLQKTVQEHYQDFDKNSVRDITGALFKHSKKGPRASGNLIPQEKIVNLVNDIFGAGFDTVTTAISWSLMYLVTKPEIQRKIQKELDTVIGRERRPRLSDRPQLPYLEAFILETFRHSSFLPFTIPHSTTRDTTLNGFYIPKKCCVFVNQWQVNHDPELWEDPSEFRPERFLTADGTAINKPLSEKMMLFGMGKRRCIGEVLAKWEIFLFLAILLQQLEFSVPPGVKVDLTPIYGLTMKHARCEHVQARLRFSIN

Cytochrome P450 2C9 = Cytochrome P450 2C9 (Homo sapiens, UniProt P11712)
Sequence of Cytochrome P450 2C9 (P11712 whole entry): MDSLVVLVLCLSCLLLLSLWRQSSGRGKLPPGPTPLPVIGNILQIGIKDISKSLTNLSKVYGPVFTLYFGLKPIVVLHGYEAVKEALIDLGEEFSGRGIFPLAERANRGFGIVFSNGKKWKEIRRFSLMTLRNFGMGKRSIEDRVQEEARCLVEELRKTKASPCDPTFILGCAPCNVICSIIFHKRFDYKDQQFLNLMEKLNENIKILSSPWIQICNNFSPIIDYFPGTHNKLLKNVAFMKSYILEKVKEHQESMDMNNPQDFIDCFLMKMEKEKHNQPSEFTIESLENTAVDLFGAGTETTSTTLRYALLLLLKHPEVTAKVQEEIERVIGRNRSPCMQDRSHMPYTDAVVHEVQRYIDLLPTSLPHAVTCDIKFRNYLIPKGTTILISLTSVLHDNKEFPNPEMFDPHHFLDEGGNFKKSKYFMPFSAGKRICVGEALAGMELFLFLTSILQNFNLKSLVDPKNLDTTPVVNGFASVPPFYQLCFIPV

[6] = biological target: T4, Heat shock factor protein 1 (Mus musculus, UniProt P38532); experiment: inhibition of MG132-induced HSE-luciferase signal, confirmation, cell-based, NIH3T3, luminescence, dose retest (AID 2382); format: functional;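 further: NIH3T3 fibroblasts with HSF1-driven luciferase reporter stressed by proteasome inhibitor MG132; luminescence from HSF1-driven luciferase expression after 8 hours of MG132 stress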
T4 sequence (P38532 whole entry): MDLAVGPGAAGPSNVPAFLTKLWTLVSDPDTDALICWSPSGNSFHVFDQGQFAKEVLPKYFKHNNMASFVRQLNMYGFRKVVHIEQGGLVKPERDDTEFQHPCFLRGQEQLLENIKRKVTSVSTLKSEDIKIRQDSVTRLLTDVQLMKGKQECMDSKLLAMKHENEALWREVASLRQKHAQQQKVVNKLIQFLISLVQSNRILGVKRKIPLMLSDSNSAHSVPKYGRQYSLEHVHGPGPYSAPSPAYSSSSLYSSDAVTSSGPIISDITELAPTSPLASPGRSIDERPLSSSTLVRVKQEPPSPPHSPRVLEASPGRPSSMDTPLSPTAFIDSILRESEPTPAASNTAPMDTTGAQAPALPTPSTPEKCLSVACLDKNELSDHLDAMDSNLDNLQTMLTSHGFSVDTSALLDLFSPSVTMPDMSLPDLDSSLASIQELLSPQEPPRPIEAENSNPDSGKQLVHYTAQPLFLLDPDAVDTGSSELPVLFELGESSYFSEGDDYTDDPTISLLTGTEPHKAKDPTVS

[7] = growth suppression of PTEN-null colon cells, dose response, cell-based, HCT116 PTEN knockout (AID 1047); format: functional;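 further: HCT116 colon tumor cells with PTEN knocked out; cells exposed to compound for 60 hours before readout; potency for loss of cell viability measured by luminescence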
[8] = growth suppression of beta-catenin-knockout colon cells, dose response, cell-based, HCT116, human colon tumor (AID 1045); format: functional;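 further: HCT116 colon tumor cells with beta catenin knocked out; cells exposed to compound for 60 hours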
Coagulation factor XII = biological target: T5, Coagulation factor XII (Homo sapiens, UniProt P00748); format: functional;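 further: activated factor XIIa alpha cleaving a fluorogenic AMC peptide substrate; inhibitor potency from loss of enzyme activity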
T5 sequence (P00748 whole entry): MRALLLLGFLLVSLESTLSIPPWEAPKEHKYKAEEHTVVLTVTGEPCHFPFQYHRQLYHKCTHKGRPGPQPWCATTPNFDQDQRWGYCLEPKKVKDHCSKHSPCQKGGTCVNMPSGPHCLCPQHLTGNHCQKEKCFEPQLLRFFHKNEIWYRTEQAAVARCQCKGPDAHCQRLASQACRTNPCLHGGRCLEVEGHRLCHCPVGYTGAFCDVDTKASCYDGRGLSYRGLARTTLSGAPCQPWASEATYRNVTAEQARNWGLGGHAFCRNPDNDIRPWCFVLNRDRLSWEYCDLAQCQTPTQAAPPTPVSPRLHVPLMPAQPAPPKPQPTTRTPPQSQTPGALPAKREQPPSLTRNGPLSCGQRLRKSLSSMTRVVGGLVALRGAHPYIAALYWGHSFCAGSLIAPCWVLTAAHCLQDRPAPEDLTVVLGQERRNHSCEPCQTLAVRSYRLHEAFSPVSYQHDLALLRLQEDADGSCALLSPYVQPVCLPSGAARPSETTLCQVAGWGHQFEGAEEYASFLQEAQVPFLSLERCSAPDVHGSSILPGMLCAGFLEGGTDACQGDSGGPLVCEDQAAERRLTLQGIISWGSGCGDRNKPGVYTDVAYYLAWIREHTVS

[9] = test system: Streptococcus sp. 'group A'; experiment: growth inhibition of control SK(-) GAS strain, dose response, counter-screen for streptokinase expression inhibitor project, luminescence, kanamycin, BacTiterGlo, confirmation (AID 1900); format: functional, organism-based
Streptokinase A = biological target: T6, Streptokinase A (Streptococcus pyogenes serotype M1, UniProt P10520); experiment: S. pyogenes streptokinase expression inhibitors, potency, dose response, plasminogen activation absorbance, OD405 (AID 1914); format: functional, Streptococcus pyogenes M1 GAS;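 further: secreted streptokinase activity via plasminogen activation per viability signal from cell pellet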
T6 sequence (P10520 whole entry): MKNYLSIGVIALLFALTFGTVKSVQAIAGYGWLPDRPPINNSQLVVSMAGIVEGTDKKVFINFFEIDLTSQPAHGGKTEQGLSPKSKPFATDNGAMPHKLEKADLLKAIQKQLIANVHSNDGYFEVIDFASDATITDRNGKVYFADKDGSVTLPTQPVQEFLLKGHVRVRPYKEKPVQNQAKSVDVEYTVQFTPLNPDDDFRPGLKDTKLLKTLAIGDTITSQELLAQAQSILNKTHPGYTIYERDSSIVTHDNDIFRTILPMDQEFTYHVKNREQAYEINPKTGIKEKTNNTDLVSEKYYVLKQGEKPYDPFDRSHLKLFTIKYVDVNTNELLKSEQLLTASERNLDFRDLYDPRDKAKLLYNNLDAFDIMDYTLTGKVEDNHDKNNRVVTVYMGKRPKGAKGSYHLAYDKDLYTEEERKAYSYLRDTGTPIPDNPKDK

Streptococcus = experiment: Group A Streptococcus viability loss, dose response, counter-screen for streptokinase expression inhibitor project, luminescence, BacTiterGlo (AID 1915); format: functional, organism-based;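 further: potency for reduction of bacterial viability or growth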
[10] = inhibitors of firefly luciferase expression or activity, dose response, H4 neuroglioma cells, luminescence (AID 1990); format: functional, cell-based
[11] = Luminescence Cell-Based Dose Response HTS to Identify Inhibitors of 5'UTR Stem-Loop Driven Prion Protein mRNA Translation in H4 Neuroglioblastoma Cells. [Related pubchem assays: 1827 (Project Summary), 1813 (Primary HTS)]; format: functional
[12] = inhibitors of SNCA 5'UTR-driven reporter translation, confirmation, H4 neuroglioma cells, luminescence (AID 1988); format: functional, cell-based
[13] = biological target: T7, RNA-binding protein pos-1 (Caenorhabditis elegans, UniProt G5EF15); experiment: inhibitors of POS-1/mex-3 RNA binding, dose response, biochemical, fluorescence polarization (AID 1964);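 further: purified POS-1 fused to maltose binding protein made in E. coli; potency of compounds blocking POS-1 binding to fluorescent RNA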
T7 sequence (G5EF15 whole entry): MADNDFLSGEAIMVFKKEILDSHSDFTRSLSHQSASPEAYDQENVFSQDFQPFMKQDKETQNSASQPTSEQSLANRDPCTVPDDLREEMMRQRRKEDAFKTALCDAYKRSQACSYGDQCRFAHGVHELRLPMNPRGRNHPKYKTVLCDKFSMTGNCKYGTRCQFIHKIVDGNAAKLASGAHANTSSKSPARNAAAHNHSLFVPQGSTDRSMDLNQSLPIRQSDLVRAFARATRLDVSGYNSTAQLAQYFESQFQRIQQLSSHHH

[14] = biological target: T8, Zinc finger protein mex-5 (Caenorhabditis elegans, UniProt Q9XUB2); experiment: MEX-5/TCR-2 RNA interaction inhibitors, dose response, biochemical, C. elegans, fluorescence polarization (AID 1960)
T8 sequence (Q9XUB2 whole entry): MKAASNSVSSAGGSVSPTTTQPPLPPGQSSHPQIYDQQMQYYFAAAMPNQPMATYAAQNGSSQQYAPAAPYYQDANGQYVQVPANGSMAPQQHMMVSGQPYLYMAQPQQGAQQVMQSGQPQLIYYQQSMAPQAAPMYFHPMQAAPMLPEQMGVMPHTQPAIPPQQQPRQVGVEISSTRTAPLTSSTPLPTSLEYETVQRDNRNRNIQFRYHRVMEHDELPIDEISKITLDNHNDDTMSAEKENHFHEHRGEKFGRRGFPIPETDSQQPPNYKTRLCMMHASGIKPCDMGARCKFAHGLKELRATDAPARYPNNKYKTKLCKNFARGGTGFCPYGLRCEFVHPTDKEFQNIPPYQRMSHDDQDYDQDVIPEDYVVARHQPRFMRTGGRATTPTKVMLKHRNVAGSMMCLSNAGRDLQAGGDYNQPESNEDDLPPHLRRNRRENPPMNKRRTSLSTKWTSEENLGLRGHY

## O=C(COC(=O)C1CCCCC1)Nc1cc([N+](=O)[O-])ccc1F
[1]
  IC50: > 50 µM (not active)
Fatty acid synthase [2]
  IC50: 7.45 µM (active)
Fatty acid synthase [3]
  IC50: 8.3 µM (active)

## Cc1c(C(c2cccc([N+](=O)[O-])c2O)c2c(C)n(C)n(-c3ccccc3)c2=O)c(=O)n(-c2ccccc2)n1C
[4]
  EC50: > 112 µM (not active)
[5]
  EC50: > 112 µM (not active)
Cytochrome P450 2C19
  AC50: 35.5 µM (inconclusive)
Cytochrome P450 1A2
  AC50: 15.8 µM (inconclusive)
Cytochrome P450 2C9
  AC50: 0.00562 µM (inconclusive)

## CCCNC(=O)N1CCCC(C(=O)c2cccc(Cl)c2)C1 (centres undefined)
[6]
  EC50: > 195 µM (not active)

## CCOC(=O)c1cc2c(=O)n3cccc(C)c3nc2n(C)c1=N
[7]
  EC50: 6.72 µM (active)
[8]
  EC50: 4.97 µM (active)

## Cc1cc(=O)oc2cc(OCCSCCN3CCCC3)ccc12
[4]
  EC50: > 112 µM (not active)
[5]
  EC50: > 112 µM (not active)

## CCN1C(=O)C(CC(=O)Nc2ccc(OC)cc2)N(Cc2ccc3c(c2)OCO3)C1=S (centres undefined)
[6]
  EC50: > 195 µM (not active)

## Nc1c(NC(=O)CC[n+]2ccccc2)cccc1[N+](=O)[O-]
[6]
  EC50: 7.93 µM (active)

## CCCNS(=O)(=O)c1ccc(OCC(=O)N2CCN(C)CC2)cc1
[6]
  EC50: > 195 µM (not active)

## CCCc1nc2sc3c(c2c(=O)n1NC(=O)CCC(=O)OC)CCCC3
[4]
  EC50: > 112 µM (not active)
[5]
  EC50: > 112 µM (not active)

## CCOc1ccccc1NC(=O)COC(=O)Cc1cccs1
[4]
  EC50: > 112 µM (not active)
[5]
  EC50: > 112 µM (not active)

## CN1CCN(c2ccc(CNS(=O)(=O)Cc3ccc(Cl)cc3)cc2)CC1
Coagulation factor XII
  IC50: > 50 µM (inactive)

## CCOc1ccc(NC(=O)c2ccc3c(=O)n(-c4ccc(OC)cc4OC)c(=S)[nH]c3c2)cc1
[9]
  EC50: 7.86 µM (active)
[6]
  EC50: > 195 µM (not active)
Streptokinase A
  EC50: > 150 µM (not active)
Streptococcus
  EC50: 12.4 µM (active)

## CN(C(=O)COC(=O)c1cc(O)nc2ccccc12)c1c(N)n(Cc2ccccc2)c(=O)[nH]c1=O
[6]
  EC50: > 195 µM (not active)

## Cc1cc(=O)oc(C)c1C(=O)NCCNC(=O)c1c(C)cc(=O)oc1C
[4]
  EC50: > 112 µM (not active)
[5]
  EC50: 28.8 µM (active)

## Cc1ccc(Cl)cc1N1CCN(C(=O)c2cn(C)c(=O)c3c2c2ccccc2n3C)CC1
[10]
  EC50: 12.4 µM (active)
[9]
  EC50: 3.51 µM (active)
[11]
  EC50: 20.5 µM (active)
[12]
  EC50: 11.4 µM (active)
Streptokinase A
  EC50: 9.73 µM (active)
[7]
  EC50: 3.36 µM (active)
[8]
  EC50: 4.17 µM (active)
Streptococcus
  EC50: 22.8 µM (active)

## Cn1cccc1/C=C1\C(=O)NC(=O)N(CCC2=CCCCC2)C1=O
[13]
  EC50: 230 µM (inconclusive)
[14]
  EC50: 35.6 µM (inconclusive)
[7]
  EC50: 67.2 µM (active)
[8]
  EC50: 82.1 µM (active)

## CCC(/N=c1\cc(-c2ccc(OC)c(OC)c2)oc2ccc(C)cc12)C(=O)O (centres undefined)
[6]
  EC50: > 195 µM (not active)

## Cc1cnn(-c2cc(N/N=C/c3ccccc3F)ncn2)c1
[7]
  EC50: 12.7 µM (active)
[8]
  EC50: 21 µM (active)
Cytochrome P450 2C9
  AC50: 1.26 µM (inconclusive)
